These results are taken from patent US11540999B2, “Deodorant compositions” (The Procter & Gamble Company, priority 2017, dated 2023).

Counter-ions that a name gives are not always drawn.

The test system of the assay is two key underarm bacteria strains. The experiment in a line: Raw material microbial inhibition, verbal summary of Table 2. In kind it is cell-based. The note with it: both strains of Table 2, in words. Here is the method:
The data in Table 2 above was generated with the following test method.
3. Microbial Strains • Staphylococcus epidermidis (clinical isolate) • Corynebacterium mucofaciens (clinical isolate)
In row A of a 96 deep well plate pipette 180 ul of sterile BHI with 1% Tween 80 as a negative growth control. All other wells receive 180 ul of inoculum. From the master plate introduce 20 ul to the corresponding row in the test plate using an 8-channel pipette. Loaded plates are placed on a plate shaker in the 37° C. incubator and incubated overnight. The next day read the O.D. 600 on a plate reader. The MIC is the last well from the right that has no bacterial growth.
Take `O=C([O-])[O-].[Ca+2]` [Ca Carbonate, calcium carbonate]: the “performance against the bacteria as raw materials” value (from here on “performance against the bacteria”) is “performing moderately well”.
On to `CC(C)=CCCC(C)=CC=O` [Citral], for which the “performance against the bacteria” value was “performing well”.
As for `COC(=O)CCC(=O)OC` [Dimethyl Succinate], the “performance against the bacteria” value is “performing well”.
In the case of `C=CCc1ccc(O)c(OC)c1` [Eugenol] it was “performing well”; in that of `C=CCCCCCCCCC(=O)N[C@@H](Cc1ccccc1)C(=O)O` [Sepiwhite], “performing well”.
As for `CCOC(=O)CC(O)(CC(=O)OCC)C(=O)OCC` [Triethyl citrate], the “performance against the bacteria” value was “performing well”.
For the compound `Cc1cc(CC(C)CC(C)(C)C)n(O)c(=O)c1.NCCO` (stereo not shown) [piroctone olamine], the “performance against the bacteria” value is given as “perform particularly well”.
